Laboratory results published in US20180334436A1 (VIIV HEALTHCARE UK LIMITED, priority 2015, published 2018).

tested on: HIV; assay: MT4 assay (anti-HIV activity); type: cell-based; settings: Human immunodeficiency virus 1, 96 h, antiviral HIV activity in HTLV-1 transformed cell line MT-4; luciferase read 96 hours later; 10 point dose response
Description: Antiviral HIV activity and cytotoxicity values for compounds of the invention from Table 1 were measured in parallel in the HTLV-1 transformed cell line MT-4 based on the method previously described (Hazen et al., 2007, In vitro antiviral activity of the novel, tyrosyl-based human immunodeficiency virus (HIV) type 1 protease inhibitor brecanavir (GW640385) in combination with other antiretrovirals and against a panel of protease inhibitor-resistant HIV (Hazen et al., “In vitro antiviral activity of the novel, tyrosyl-based human immunodeficiency virus (HIV) type 1 protease inhibitor brecanavir (GW640385) in combination with other antiretrovirals and against a panel of protease inhibitor-resistant HIV”, Antimicrob. Agents Chemother. 2007, 51: 3147-3154; and Pauwels et al., “Sensitive and rapid assay on MT-4 cells for the detection of antiviral compounds against the AIDS virus”, J. of Virological Methods 1987, 16: 171-185).
Luciferase activity was measured 96 hours later by adding a cell titer glo (Promega, Madison, Wis.). Percent inhibition of cell protection data was plotted relative to no compound control. Under the same condition, cytotoxicity of the compounds was determined using cell titer Glo™ (Promega, Madison, Wis.). IC50s were determined from a 10 point dose response curve using 3-4-fold serial dilution for each compound, which spans a concentration range >1000 fold.
These values are plotted against the molar compound concentrations using the standard four parameter logistic equation:
y=((Vmax*x̂n)/(K̂n+x̂n))+Y2
Y2=minimum y n=slope factor
Vmax=maximum y x=compound concentration [M]

Compound | IC50 [nM]
Cc1ccc(-c2c(C)c3c(c(C)c2[C@H](OC(C)(C)C)C(=O)O)CN(C(=O)OC(C)(C)C)CC3)cc1 [Example 17, (S)-2-(tert-Butoxy)-2-(2-(tert-butoxycarbonyl)-5,8-dimethyl-6-(p-tolyl)-1,2,3,4-tetrahydroisoquinolin-7-yl)acetic Acid] | 444
Cc1ccc(-c2c(C)c3c(c(C)c2C(OC(C)(C)C)C(=O)O)CN(C(=O)C(=O)N2CCCCC2)CC3)cc1 (centres unmarked) [Example 5, 2-(tert-Butoxy)-2-(5,8-dimethyl-2-(2-oxo-2-(piperidin-1-yl)acetyl)-6-(p-tolyl)-1,2,3,4-tetrahydroisoquinolin-7-yl)acetic Acid] | 157
Cc1ccc(-c2c(C)c3c(c(C)c2[C@H](OC(C)(C)C)C(=O)O)CCN(C2CCCCC2)C3)cc1 [Example 29, (S)-2-(tert-Butoxy)-2-(2-cyclohexyl-5,8-dimethyl-7-(p-tolyl)-1,2,3,4-tetrahydroisoquinolin-6-yl)acetic Acid] | 13
Cc1ccc(-c2c(C)c3c(c(C)c2[C@H](OC(C)(C)C)C(=O)O)CCN(C2CCC2)C3)cc1 [Example 61, (S)-2-(tert-butoxy)-2-(2-cyclobutyl-5,8-dimethyl-7-(p-tolyl)-1,2,3,4-tetrahydroisoquinolin-6-yl)acetic Acid] | 141
Cc1ccc(-c2c(C)c3c(c(C)c2[C@H](OC(C)(C)C)C(=O)O)CCN(Cc2cccc(F)c2)C3)cc1 [Example 30, (S)-2-(tert-Butoxy)-2-(2-(3-fluorobenzyl)-5,8-dimethyl-7-(p-tolyl)-1,2,3,4-tetrahydroisoquinolin-6-yl)acetic Acid] | 382
Cc1ccc(-c2c(C)c3c(c(C)c2[C@H](OC(C)(C)C)C(=O)O)CCN(C2CCC(F)(F)CC2)C3)cc1 [Example 56, (S)-2-(tert-butoxy)-2-(2-(4,4-difluorocyclohexyl)-5,8-dimethyl-7-(p-tolyl)-1,2,3,4-tetrahydroisoquinolin-6-yl)acetic Acid] | 14
Cc1ccc(-c2c(C)c3c(c(C)c2C(OC(C)(C)C)C(=O)O)CN(C(=O)N2CCCCC2)CC3)cc1 (centres unmarked) [Example 9, 2-(tert-Butoxy)-2-(5,8-dimethyl-2-(piperidine-1-carbonyl)-6-(p-tolyl)-1,2,3,4-tetrahydroisoquinolin-7-yl)acetic Acid] | 38
Cc1ccc(-c2c(C)c3c(c(C)c2[C@H](OC(C)(C)C)C(=O)O)CCN(C(=O)OC(C)(C)C)C3)cc1 [Example 27, (S)-2-(tert-Butoxy)-2-(2-(tert-butoxycarbonyl)-5,8-dimethyl-7-(p-tolyl)-1,2,3,4-tetrahydroisoquinolin-6-yl)acetic Acid] | 114
Cc1ccc(-c2c(C)c3c(c(C)c2[C@H](OC(C)(C)C)C(=O)O)CCN(C(=O)C2CCCCCC2)C3)cc1 [Example 75, (S)-2-(tert-butoxy)-2-(2-(cycloheptanecarbonyl)-5,8-dimethyl-7-(p-tolyl)-1,2,3,4-tetrahydroisoquinolin-6-yl)acetic Acid] | 51
Cc1c2c(c(C)c([C@H](OC(C)(C)C)C(=O)O)c1-c1ccc(Cl)cc1)CCN(C1CCCCC1)C2 [Example 87, (S)-2-(tert-butoxy)-2-(7-(4-chlorophenyl)-2-cyclohexyl-5,8-dimethyl-1,2,3,4-tetrahydroisoquinolin-6-yl)acetic Acid] | 15
Cc1ccc(-c2c(C)c3c(c(C)c2[C@H](OC(C)(C)C)C(=O)O)CCN(S(=O)(=O)CC(C)(C)C)C3)cc1 [Example 62, (S)-2-(tert-butoxy)-2-(5,8-dimethyl-2-(neopentylsulfonyl)-7-(p-tolyl)-1,2,3,4-tetrahydroisoquinolin-6-yl)acetic Acid] | 11
Cc1ccc(-c2c(C)c3c(c(C)c2[C@H](OC(C)(C)C)C(=O)O)CCN(C2CCCCCCC2)C3)cc1 [Example 69, (S)-2-(tert-butoxy)-2-(2-cyclooctyl-5,8-dimethyl-7-(p-tolyl)-1,2,3,4-tetrahydroisoquinolin-6-yl)acetic Acid] | 6
Cc1ccc(-c2c(C)c3c(c(C)c2[C@H](OC(C)(C)C)C(=O)O)CCN(C2CCC4CCC2C4)C3)cc1 (stereo partly drawn) [Example 60, (2S)-2-(2-(bicyclo[3.2.1]octan-2-yl)-5,8-dimethyl-7-(p-tolyl)-1,2,3,4-tetrahydroisoquinolin-6-yl)-2-(tert-butoxy)acetic Acid] | 5
Cc1ccc(-c2c(C)c3c(c(C)c2[C@H](OC(C)(C)C)C(=O)O)CCN(S(=O)(=O)NC2CCCCC2)C3)cc1 [Example 63, (S)-2-(tert-butoxy)-2-(2-(N-cyclohexylsulfamoyl)-5,8-dimethyl-7-(p-tolyl)-1,2,3,4-tetrahydroisoquinolin-6-yl)acetic Acid] | 119
Cc1c(-c2c(C)c3c(c(C)c2[C@H](OC(C)(C)C)C(=O)O)CCN(C2CCCCC2)C3)cc(Cl)c2c1CCCO2 (atropisomer, axis not shown; (M)) [Example 89, (S)(M)-2-(tert-butoxy)-2-(7-(8-chloro-5-methylchroman-6-yl)-2-cyclohexyl-5,8-dimethyl-1,2,3,4-tetrahydroisoquinolin-6-yl)acetic Acid] | 12
Cc1c(-c2c(C)c3c(c(C)c2[C@H](OC(C)(C)C)C(=O)O)CCN(C2CCCCC2)C3)ccc2c1CCCO2 (atropisomer, axis not shown; (M)) [Example 84, (S)(M)-2-(tert-butoxy)-2-(2-cyclohexyl-5,8-dimethyl-7-(5-methylchroman-6-yl)-1,2,3,4-tetrahydroisoquinolin-6-yl)acetic Acid] | 5
Cc1ccc(-c2c(C)c3c(c(C)c2[C@H](OC(C)(C)C)C(=O)O)CCN(C(=O)CC(C)(C)C)C3)cc1 [Example 25, (S)-2-(tert-Butoxy)-2-(2-(3,3-dimethylbutanoyl)-5,8-dimethyl-7-(p-tolyl)-1,2,3,4-tetrahydroisoquinolin-6-yl)acetic Acid] | 95
Cc1c(-c2c(C)c3c(c(C)c2[C@H](OC(C)(C)C)C(=O)O)CCN(S(=O)(=O)C2CCCCC2)C3)ccc2c1CCCO2 (atropisomer, axis not shown; (M)) [Example 83, (2S)(M)-2-(tert-butoxy)-2-(-2-(cyclohexylsulfonyl)-5,8-dimethyl-7-(5-methylchroman-6-yl)-1,2,3,4-tetrahydroisoquinolin-6-yl)acetic Acid] | 46
Cc1c(-c2c(C)c3c(c(C)c2[C@H](OC(C)(C)C)C(=O)O)CCN(C2CCC(C)(C)CC2)C3)cc(F)c2c1CCCO2 [Example 81, (S)-2-(tert-Butoxy)-2-((R)-2-(4,4-dimethylcyclohexyl)-7-(8-fluoro-5-methylchroman-6-yl)-5,8-dimethyl-1,2,3,4-tetrahydroisoquinolin-6-yl)acetic Acid] | 4
Cc1ccc(-c2c(C)c3c(c(C)c2[C@H](OC(C)(C)C)C(=O)O)CCN(C2CCC[C@@H](C)C2)C3)cc1 (stereo partly drawn) [Example 72, (2S)-2-(tert-butoxy)-2-(5,8-dimethyl-2-((3R)-3-methylcyclohexyl)-7-(p-tolyl)-1,2,3,4-tetrahydroisoquinolin-6-yl)acetic Acid] | 23
Cc1ccc(-c2c(C)c3c(c(C)c2C(OC(C)(C)C)C(=O)O)C(=O)N(Cc2ccccc2)CC3)cc1 (centres unmarked) [Example 121, 2-(2-benzyl-5,8-dimethyl-1-oxo-6-(p-tolyl)-1,2,3,4-tetrahydroisoquinolin-7-yl)-2-(tert-butoxy)acetic Acid] | 474
Cc1ccc(-c2c(C)c3c(c(C)c2[C@H](OC(C)(C)C)C(=O)O)CCN(S(=O)(=O)C(C)C)C3)cc1 [Example 66, (S)-2-(tert-butoxy)-2-(2-(isopropylsulfonyl)-5,8-dimethyl-7-(p-tolyl)-1,2,3,4-tetrahydroisoquinolin-6-yl)acetic Acid] | 48
Cc1c(-c2c(C)c3c(c(C)c2[C@H](OC(C)(C)C)C(=O)O)CCN(S(=O)(=O)C2CCCCC2)C3)ccc2c1NCCO2 (atropisomer, axis not shown; (M)) [Example 95, (S)(M)-2-(tert-butoxy)-2-(2-(cyclohexylsulfonyl)-5,8-dimethyl-7-(5-methyl-3,4-dihydro-2H-benzo[b][1,4]oxazin-6-yl)-1,2,3,4-tetrahydroisoquinolin-6-yl)acetic Acid] | 9
Cc1ccc(-c2c(C)c3c(c(C)c2[C@H](OC(C)(C)C)C(=O)O)CCN(C(=O)NC2CCCCC2)C3)cc1 [Example 35, (S)-2-(tert-Butoxy)-2-(2-(cyclohexylcarbamoyl)-5,8-dimethyl-7-(p-tolyl)-1,2,3,4-tetrahydroisoquinolin-6-yl)acetic Acid] | 360
Cc1ccc(-c2c(C)c3c(c(C)c2[C@H](OC(C)(C)C)C(=O)O)CCN(C2CCOCC2)C3)cc1 [Example 28, (S)-2-(tert-Butoxy)-2-(5,8-dimethyl-2-(tetrahydro-2H-pyran-4-yl)-7-(p-tolyl)-1,2,3,4-tetrahydroisoquinolin-6-yl)acetic Acid] | 378
Cc1ccc(-c2c(C)c3c(c(C)c2C(OC(C)(C)C)C(=O)O)CN(Cc2cccc(F)c2)CC3)cc1 (centres unmarked) [Example 1, 2-(tert-Butoxy)-2-(2-(3-fluorobenzyl)-5,8-dimethyl-6-(p-tolyl)-1,2,3,4-tetrahydroisoquinolin-7-yl)acetic Acid] | 3250
